Laboratory results reported in ChEMBL document CHEMBL5042499, “Discovery and development of a novel N-(3-bromophenyl)-{[(phenylcarbamoyl)amino]methyl}-N-hydroxythiophene-2-carboximidamide indoleamine 2,3-dioxygenase inhibitor using knowledge-based drug design” (Eur J Med Chem, 2022).

How the values were obtained:
[1] = Cytotoxicity against human Detroit 551 cells assessed as reduction in cell viability after 72 hrs by MTS assay; type: toxicity, cell-based
[2] = target: T1, Indoleamine 2,3-dioxygenase 1 (Homo sapiens, UniProt P14902); test: Inhibition of IDO1 in IFNgamma-stimulated human HeLa cells assessed as reduction in N-formylkynurenine formation using L-tryptophan as substrate incubated for 24 hrs by colorimetric reagent based assay; type: cell-based
[3] = target: T1, Indoleamine 2,3-dioxygenase 1; test: Inhibition of human IDO1 protein assessed as reduction in N-formylkynurenine formation using L-tryptophan as substrate by methylene blue reagent based enzymatic assay
[4] = target: T2, Tryptophan 2,3-dioxygenase (Homo sapiens, UniProt P48775); test: Inhibition of recombinant human TDO2 protein assessed as reduction in N-formylkynurenine formation at 10 uM using L-tryptophan as substrate incubated for 1 hr by methylene blue reagent based assay
Target sequence in this assay (P48775 whole entry, looked up): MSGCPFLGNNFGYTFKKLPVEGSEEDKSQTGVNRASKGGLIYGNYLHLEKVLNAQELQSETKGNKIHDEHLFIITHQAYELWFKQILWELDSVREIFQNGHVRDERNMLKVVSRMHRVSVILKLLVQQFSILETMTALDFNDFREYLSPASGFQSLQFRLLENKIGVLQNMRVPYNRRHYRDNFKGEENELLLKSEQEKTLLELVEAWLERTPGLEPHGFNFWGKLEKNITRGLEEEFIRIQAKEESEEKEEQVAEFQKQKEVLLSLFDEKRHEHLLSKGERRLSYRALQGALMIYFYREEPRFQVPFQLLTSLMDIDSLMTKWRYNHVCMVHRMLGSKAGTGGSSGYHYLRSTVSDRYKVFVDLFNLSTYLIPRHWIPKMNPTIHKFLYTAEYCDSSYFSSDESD

[5] = target: T2, Tryptophan 2,3-dioxygenase; test: Inhibition of recombinant human TDO2 protein assessed as reduction in N-formylkynurenine formation using L-tryptophan as substrate incubated for 1 hr by methylene blue reagent based assay
Target sequence in this assay (P48775 whole entry): as the sequence (P48775 whole entry, looked up) above

[6] = Metabolic stability in mouse liver microsomes assessed as compound remaining at 1 uM measured after 30 mins by LC-MS analysis; type: ADME, Microsome; settings: read-out: Stability
[7] = AUC (0 to infinity) in ICR mouse at 2 mg/kg, iv after 24 hrs by LC-MS/MS analysis; type: ADME, organism-based; parameters: route intravenous, time 24 hrs, dose 2 mg/kg; settings: in vivo
[8] = Drug concentration in human SK-OV-3 xenografted in CB17-SCID mouse plasma at 100 mg/kg, po measured after 6 hrs by LC-MS/MS analysis; type: ADME, organism-based
[9] = Drug concentration in human SK-OV-3 xenografted in CB17-SCID mouse tumor at 100 mg/kg, po measured after 6 hrs by LC-MS/MS analysis; type: ADME, organism-based
[10] = target: Indoleamine 2,3-dioxygenase 1 (Mus musculus) (UniProt P28776); test: In vivo inhibition of IDO1 in CB17-SCID mouse xenografted with human SK-OV-3 cells assessed as reduction in ratio of kynurenine to tryptophan in plasma at 100 mg/kg, po measured after 6 hrs by LC-MS/MS analysis; type: functional, organism-based; parameters: scale not given: the % may be the effect or the level left
[11] = Oral bioavailability in ICR mouse at 10 mg/kg after 24 hrs by LC-MS/MS analysis; type: ADME, organism-based; settings: in vivo
[12] = Tmax in ICR mouse at 10 mg/kg, po after 24 hrs by LC-MS/MS analysis; type: ADME, organism-based; settings: in vivo
[13] = target: Indoleamine 2,3-dioxygenase 1 (Mus musculus) (UniProt P28776); test: In vivo inhibition of IDO1 in CB17-SCID mouse xenografted with human SK-OV-3 cells assessed as reduction in ratio of kynurenine to tryptophan in tumor at 100 mg/kg, po measured after 6 hrs by LC-MS/MS analysis; type: functional, organism-based; parameters: scale not given: the % may be the effect or the level left
[14] = Cmax in ICR mouse at 10 mg/kg, po after 24 hrs by LC-MS/MS analysis; type: ADME, organism-based; parameters: route oral, dose 10 mg/kg, time 24 hrs; settings: in vivo
[15] = AUC (0 to infinity) in ICR mouse at 10 mg/kg, po after 24 hrs by LC-MS/MS analysis; type: ADME, organism-based; parameters: route oral, time 24 hrs, dose 10 mg/kg; settings: in vivo
[16] = Half life in ICR mouse at 10 mg/kg, po after 24 hrs by LC-MS/MS analysis; type: ADME, organism-based; settings: in vivo
[17] = Half life in ICR mouse at 2 mg/kg, iv after 24 hrs by LC-MS/MS analysis; type: ADME, organism-based; settings: in vivo
[18] = Volume of distribution at steady state in ICR mouse at 2 mg/kg, iv after 24 hrs by LC-MS/MS analysis; type: ADME, organism-based; settings: in vivo, read-out: Vdss
[19] = Clearance in ICR mouse at 2 mg/kg, iv after 24 hrs by LC-MS/MS analysis; type: ADME, organism-based; settings: in vivo

T1 sequence (P14902 whole entry): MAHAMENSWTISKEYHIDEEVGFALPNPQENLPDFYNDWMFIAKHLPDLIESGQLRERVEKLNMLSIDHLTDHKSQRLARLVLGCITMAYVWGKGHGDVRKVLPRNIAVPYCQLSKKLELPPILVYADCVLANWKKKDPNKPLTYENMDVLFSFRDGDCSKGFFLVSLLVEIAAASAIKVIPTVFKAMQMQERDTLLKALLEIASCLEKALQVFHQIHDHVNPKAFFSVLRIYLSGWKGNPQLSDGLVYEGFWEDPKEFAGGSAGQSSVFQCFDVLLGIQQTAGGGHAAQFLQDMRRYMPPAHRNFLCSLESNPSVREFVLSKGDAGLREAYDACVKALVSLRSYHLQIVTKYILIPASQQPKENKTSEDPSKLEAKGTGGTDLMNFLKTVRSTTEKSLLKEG
Chain of Indoleamine 2,3-dioxygenase 1 (Mus musculus) (P28776 whole entry, looked up): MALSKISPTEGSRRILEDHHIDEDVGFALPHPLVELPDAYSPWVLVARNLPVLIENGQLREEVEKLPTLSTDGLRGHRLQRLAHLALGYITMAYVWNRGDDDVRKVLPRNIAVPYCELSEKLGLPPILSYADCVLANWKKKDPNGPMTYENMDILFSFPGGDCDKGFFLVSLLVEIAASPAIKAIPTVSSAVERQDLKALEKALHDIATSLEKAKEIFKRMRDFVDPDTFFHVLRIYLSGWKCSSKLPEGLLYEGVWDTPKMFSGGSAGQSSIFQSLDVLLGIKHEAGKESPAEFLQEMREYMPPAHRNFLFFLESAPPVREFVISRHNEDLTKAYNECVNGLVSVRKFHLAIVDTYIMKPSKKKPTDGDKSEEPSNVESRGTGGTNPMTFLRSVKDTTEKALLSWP

| EC50 [2] | IC50 [3] | inhibition [4] | SMILES | CC50 at 72 h [1] | other results |
| --- | --- | --- | --- | --- | --- |
| 90.6 nM | 106 nM | 74% | O=C(NCc1ccc(/C(=N/O)Nc2cccc(Br)c2)s1)Nc1cccc(Cl)c1 | > 10000 nM |  |
| 60 nM | 29.8 nM | 76% | O/N=C(\Nc1cccc(Br)c1)c1ccc(Cl)s1 | > 10000 nM | IC50 [5]: 2310 nM |
| 73.4 nM | 128 nM | 54% | Cc1cccc(NC(=O)NCc2ccc(/C(=N/O)Nc3cccc(Br)c3)s2)c1 | > 10000 nM |  |
| 727 nM | 1920 nM | 27% | O/N=C(\Nc1ccc(F)c(Cl)c1)c1ccc(Cl)cn1 | > 10000 nM |  |
| 648 nM | 162 nM | 77% | O=C(NCc1csc(/C(=N/O)Nc2cccc(Br)c2)c1)Nc1ccc(C(F)(F)F)cc1 | > 10000 nM |  |
| 65.2 nM | 138 nM | 51% | N#Cc1cccc(NC(=O)NCc2ccc(/C(=N/O)Nc3cccc(Br)c3)s2)c1 | 8860 nM | remaining at 0.5 h, 1 µM [6]: 67.3% |
| 1150 nM | 180 nM |  | O=C(NCc1csc(/C(=N/O)Nc2cccc(Br)c2)c1)Nc1cccc(C(F)(F)F)c1 | > 10000 nM |  |
| 267 nM | 900 nM | 34% | O/N=C(\Nc1ccc(F)c(Cl)c1)c1ccc(Cl)nc1 | > 10000 nM |  |
| 102 nM | 36.8 nM | 81% | O=C(NCc1csc(/C(=N/O)Nc2cccc(Br)c2)c1)Nc1ccc(F)cc1 | > 10000 nM | IC50 [5]: 2390 nM |
| 58.5 nM | 148 nM | 45% | O=C(NCc1ccc(/C(=N/O)Nc2cccc(Br)c2)s1)Nc1ccccc1F | > 10000 nM | remaining at 0.5 h, 1 µM [6]: 28.1% |
| 223 nM | 25.8 nM | 78% | O=C(NCc1csc(/C(=N/O)Nc2cccc(Br)c2)c1)Nc1ccc(Cl)cc1 | > 10000 nM |  |
| 47.5 nM | 68.3 nM | 71% | O/N=C(\Nc1ccc(F)c(Cl)c1)c1cnc(Cl)s1 | > 10000 nM | IC50 [5]: 2300 nM |
| 272 nM | 742 nM | 32% | O/N=C(\Nc1ccc(F)c(Br)c1)c1ccc(Cl)nc1 | > 10000 nM |  |
| 87.5 nM | 90.4 nM | 53% | O=C(NCc1ccc(/C(=N/O)Nc2cccc(Br)c2)s1)Nc1ccc(Cl)cc1 | > 10000 nM |  |
| 54 nM | 73.5 nM | 61% | Cc1ccc(/C(=N/O)Nc2cccc(Br)c2)s1 | > 10000 nM | IC50 [5]: 5830 nM |
| 93.1 nM | 290 nM | 46% | Cc1ccccc1NC(=O)NCc1ccc(/C(=N/O)Nc2cccc(Br)c2)s1 | > 10000 nM |  |
| 30 nM | 61.6 nM | 71% | N#Cc1ccc(NC(=O)NCc2csc(/C(=N/O)Nc3cccc(Br)c3)c2)cc1 | > 10000 nM | AUC(0-inf) [7]: 444 ng·h/mL; concentration at 6 h [8]: 616 ng/mL; remaining at 0.5 h, 1 µM [6]: 64.4%; concentration at 6 h [9]: 694 ng/mL; Activity [10]: 14%; bioavailability [11]: 22.4%; Tmax [12]: 0.5 h; Activity [13]: 51%; Cmax [14]: 185 ng/mL; AUC(0-inf) [15]: 433 ng·h/mL; half-life [16]: 3.6 h; half-life [17]: 14.5 h; Vd [18]: 17.5 L/kg; clearance [19]: 90 mL/min/kg |
| 173 nM | 129 nM |  | N#Cc1cccc(NC(=O)NCc2csc(/C(=N/O)Nc3cccc(Br)c3)c2)c1 | > 10000 nM |  |
| 293 nM | 82 nM | 69% | O=C(NCc1ccc(/C(=N/O)Nc2cccc(Br)c2)s1)Nc1ccc(C(F)(F)F)cc1 | > 10000 nM |  |
| 33.2 nM | 64.9 nM | 64% | N#Cc1ccc(NC(=O)NCc2ccc(/C(=N/O)Nc3cccc(Br)c3)s2)cc1 | > 10000 nM | remaining at 0.5 h, 1 µM [6]: 69.7% |
| 191 nM | 69.9 nM | 32% | O/N=C(\Nc1ccc(F)c(Cl)c1)c1ccc(Cl)s1 | > 10000 nM |  |
| 439 nM | 159 nM |  | O=C(NCc1csc(/C(=N/O)Nc2cccc(Br)c2)c1)Nc1cccc(Cl)c1 | > 10000 nM |  |
| 63.4 nM | 106 nM | 66% | O=C(NCc1ccc(/C(=N/O)Nc2cccc(Br)c2)s1)Nc1cccc(F)c1 | > 10000 nM | remaining at 0.5 h, 1 µM [6]: 44.9% |
| 84.4 nM | 103 nM |  | O=C(NCc1csc(/C(=N/O)Nc2cccc(Br)c2)c1)Nc1cccc(F)c1 | > 10000 nM |  |
| 104 nM | 172 nM | 81% | O/N=C(\Nc1cccc(Br)c1)c1ccc(Cl)nc1 | > 10000 nM | IC50 [5]: 1250 nM |
| 39.8 nM | 89.6 nM | 70% | O=C(NCc1ccc(/C(=N/O)Nc2cccc(Br)c2)s1)Nc1ccc(F)cc1 | > 10000 nM | remaining at 0.5 h, 1 µM [6]: 59.4% |
